The source of these data is ChEMBL document CHEMBL1142513, “Efficient solid-phase synthesis of FK228 analogues as potent antitumoral agents” (J Med Chem, 2008).

For test [1], the system named is T-24. Briefly: Growth inhibition of human T24 cells at 0.5 uM after 3 days by MTT assay. It counts as functional. The settings on record: T-24, 72 h, read-out: GI.
Test [2] has as its system T-24. In words: Growth inhibition of human T24 cells at 5 uM after 3 days by MTT assay. The settings on record: T-24, 72 h, read-out: GI. It counts as functional. A general note: Formazan colour is commonly taken as a measure of viable cells.
Test [3] has as its system T-24. In words: Antitumor activity against human T24 cells after 3 days by MTT assay. It counts as functional, cell-based. The settings on record: T-24, 72 h.
The next test relates to LNCaP. Briefly: Antitumor activity against human LNCAP cells after 3 days by MTT assay. The settings on record: 72 h. Type of test: functional, cell-based.
In a further test the test system is TCC-SUP. Briefly: Antitumor activity against human TCC-SUP cells after 3 days by MTT assay. As to conditions: 72 h. Type of test: functional, cell-based.
In a further test the test system is PC-3. Briefly: Antitumor activity against human PC-3 cells after 3 days by MTT assay. It counts as functional, cell-based. The settings on record: PC-3, 72 h.
Test [4] in a line: Antitumor activity against human 253J cells after 3 days by MTT assay. The settings on record: 72 h. It counts as functional, cell-based.
For the next test, the system named is DU-145. Briefly: Antitumor activity against human DU145 cells after 3 days by MTT assay. It counts as functional, cell-based. The settings on record: DU-145, 72 h.

In the case of `CC(C)[C@H]1NC(=O)C[C@@H]2NC(=O)[C@H](Cc3ccccc3)NC(=O)[C@H](Cc3ccccc3)NC(=O)[C@H](CSSCCNC2=O)NC1=O`, the inhibition of growth at 0.5 µM in the test on T-24 [1] worked out at 70%. In the test on T-24 [2], the inhibition of growth at 5 µM is more than 95%. Also, the IC50 – broadly, the concentration needed to halve the response being measured – in the test with T-24 [3] turned out to be 0.26 µM; with LNCaP, 0.27 µM; in the test with TCC-SUP, 0.38 µM; with PC-3, 0.6 µM; in test [4] it was 0.18 µM; in the test on DU-145, 0.18 µM.
Regarding `CC(C)[C@H]1NC(=O)C[C@@H]2NC(=O)[C@H](Cc3cccc4ccccc34)NC(=O)[C@H](Cc3cccc4ccccc34)NC(=O)[C@H](CSSCCNC2=O)NC1=O`, in the test with T-24 [1], the inhibition of growth at 0.5 µM turned out to be 70%. In the test on T-24 [2], the inhibition of growth at 5 µM is more than 95%. In addition, in the test with T-24 [3], the IC50 came to 0.06 µM.
